Assay results as given in patent publication US9326986B2, “Quinazolinone, quinolone and related analogs as sirtuin modulators” (GLAXOSMITHKLINE LLC, priority 2008, dated 2016).

Biological target: T1, SIRT1 (Homo sapiens, UniProt Q96EB6)
T1 sequence (Q96EB6 1-747): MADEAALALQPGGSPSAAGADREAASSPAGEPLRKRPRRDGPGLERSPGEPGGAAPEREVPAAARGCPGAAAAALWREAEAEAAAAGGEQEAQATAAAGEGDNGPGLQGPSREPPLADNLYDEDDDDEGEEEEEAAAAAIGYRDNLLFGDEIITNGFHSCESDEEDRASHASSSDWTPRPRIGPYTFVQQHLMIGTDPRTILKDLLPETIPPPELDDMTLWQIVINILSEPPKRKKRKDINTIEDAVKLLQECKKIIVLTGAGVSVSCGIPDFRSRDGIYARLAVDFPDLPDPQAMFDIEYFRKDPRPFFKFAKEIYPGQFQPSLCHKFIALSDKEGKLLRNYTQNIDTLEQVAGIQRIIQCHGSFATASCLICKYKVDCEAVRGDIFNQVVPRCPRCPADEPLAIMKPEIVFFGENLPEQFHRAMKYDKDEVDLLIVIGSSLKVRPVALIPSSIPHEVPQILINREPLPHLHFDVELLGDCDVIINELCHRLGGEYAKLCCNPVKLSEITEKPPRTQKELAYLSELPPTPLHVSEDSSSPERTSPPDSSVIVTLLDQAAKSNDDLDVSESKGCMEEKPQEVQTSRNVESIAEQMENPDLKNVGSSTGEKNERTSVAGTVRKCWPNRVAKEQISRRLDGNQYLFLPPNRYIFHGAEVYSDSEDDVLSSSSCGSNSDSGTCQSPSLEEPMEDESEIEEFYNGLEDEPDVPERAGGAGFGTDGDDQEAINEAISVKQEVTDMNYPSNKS
Assay: Mass spectrometry based assay to identify modulators of SIRT1 activity (deacetylation of p53-based acetylated peptide)
Format: biochemical
Details: 10 nM SIRT1, 0.5 μM peptide substrate, 120 μM βNAD+, 25 minutes at 25° C.; for EC1.5 μM: SIRT1 activation

Compound	% Fold Act. (percent maximum fold activation)	EC1.5 μM
Cn1c(-c2cccc(CN3CCCC3)c2)nc2c(C(=O)Nc3ccccn3)cccc2c1=O [Compound 276]	B (Fold Activation<200%)	B (EC1.5 1-25 μM)
CCCn1c(-c2cccc(C(F)(F)F)c2)nc2c(NC(=O)c3cnccn3)cccc2c1=O [Compound 233]	A (Fold activation>200%)	A (EC1.5<1.0 μM)
Cn1c(-c2cccc(OC(F)(F)F)c2)nc2c(C(=O)Nc3ccccn3)cccc2c1=O [Compound 207]	A (Fold activation>200%)	A (EC1.5<1.0 μM)
Cn1c(-c2cccc(C(F)(F)F)c2)nc2c(C(=O)Nc3nc(CN4CCOCC4)cs3)cccc2c1=O [Compound 309]	A (Fold activation>200%)	A (EC1.5<1.0 μM)
Cn1c(-c2cccc(C(F)F)c2)nc2c(NC(=O)c3cnccn3)cccc2c1=O [Compound 310]	A (Fold activation>200%)	A (EC1.5<1.0 μM)
Cn1c(-c2cccc(C#N)c2)nc2c(C(=O)Nc3ccccn3)cccc2c1=O [Compound 253]	B (Fold Activation<200%)	C (EC1.5>25 μM)
Cc1ncoc1C(=O)Nc1cccc2c(=O)n(C)c(-c3cccc(C(F)(F)F)c3)nc12 [Compound 230]	A (Fold activation>200%)	A (EC1.5<1.0 μM)
CCn1c(-c2cccc(C(F)(F)F)c2)nc2c(NC(=O)c3cnccn3)cccc2c1=O [Compound 232]	A (Fold activation>200%)	A (EC1.5<1.0 μM)
Cn1c(-c2cccc(C(F)(F)F)c2)nc2c(C(=O)Nc3cncc(CN4CCOCC4)c3)cccc2c1=O [Compound 300]	A (Fold activation>200%)	B (EC1.5 1-25 μM)
Cn1cc(-c2nc3c(NC(=O)c4cnccn4)cccc3c(=O)n2C)cn1 [Compound 291]	B (Fold Activation<200%)	C (EC1.5>25 μM)
O=C(Nc1nccs1)c1cccc2c(=O)cc(-c3cccc(C(F)F)c3)[nH]c12 [Compound 431]	A (Fold activation>200%)	A (EC1.5<1.0 μM)
Cn1c(-c2ccc(CN3CCCC3)cc2)nc2c(C(=O)Nc3ccccn3)cccc2c1=O [Compound 275, 3-methyl-4-oxo-N-(pyridin-2-yl)-2-(4-(pyrrolidin-1-ylmethyl)phenyl)-3,4-dihydroquinazoline-8-carboxamide]	B (Fold Activation<200%)	C (EC1.5>25 μM)
O=C(Nc1cccc2c(=O)cc(-c3cccc(C(F)(F)F)c3)[nH]c12)c1ncccn1 [Compound 417]	A (Fold activation>200%)	A (EC1.5<1.0 μM)
Cn1ccnc1-c1nc2c(C(=O)Nc3ccccn3)cccc2c(=O)n1C [Compound 227]	B (Fold Activation<200%)	C (EC1.5>25 μM)
Cn1c(-c2cccc(Cl)c2)nc2c(C(=O)Nc3cccnc3)cccc2c1=O [Compound 243]	B (Fold Activation<200%)	B (EC1.5 1-25 μM)
CC(C)Cn1c(-c2cccc(C(F)(F)F)c2)nc2c(C(=O)Nc3ccccn3)cccc2c1=O [Compound 271]	B (Fold Activation<200%)	B (EC1.5 1-25 μM)
Cn1c(-c2ccc(C(F)(F)F)cc2)nc2c(C(=O)Nc3ccccn3)cccc2c1=O [Compound 208]	B (Fold Activation<200%)	C (EC1.5>25 μM)
O=C(Nc1nccs1)c1cccc2c(=O)cc(-c3cccc(OC(F)F)c3)[nH]c12 [Compound 428]	A (Fold activation>200%)	A (EC1.5<1.0 μM)
Cn1c(-c2ccccc2C(F)F)nc2c(NC(=O)c3cnccn3)cccc2c1=O [Compound 314]	A (Fold activation>200%)	A (EC1.5<1.0 μM)
O=C(Nc1cccc2c(=O)cc(-c3cccc(C(F)(F)F)c3)[nH]c12)c1ccns1 [Compound 411]	A (Fold activation>200%)	A (EC1.5<1.0 μM)

Compound	% Fold Act. (percent maximum fold activation)	EC1.5 μM
O=C(Nc1cccnc1)c1cccc2c(=O)cc(-c3ccccc3C(F)F)[nH]c12 [Compound 438]	A (Fold activation>200%)	B (EC1.5 1-25 μM)
CCn1c(-c2cccc(C(F)(F)F)c2)nc2c(C(=O)Nc3ccccn3)cccc2c1=O [Compound 269]	B (Fold Activation<200%)	B (EC1.5 1-25 μM)
Cn1c(-c2cccc(C(F)(F)F)c2)nc2c(C(=O)Nc3nc(CN4CCCC4)cs3)cccc2c1=O [Compound 357]	A (Fold activation>200%)	A (EC1.5<1.0 μM)
Cn1c(-c2ccc(C#N)cc2)nc2c(C(=O)Nc3ccccn3)cccc2c1=O [Compound 254]	B (Fold Activation<200%)	C (EC1.5>25 μM)
O=C(Nc1nccs1)c1cccc2c(=O)cc(-c3ccccc3OC(F)(F)F)[nH]c12 [Compound 430]	A (Fold activation>200%)	A (EC1.5<1.0 μM)
Cn1c(-c2cccc(C(F)(F)F)c2)nc2c(C(=O)Nc3cccc(OC[C@H](O)CO)n3)cccc2c1=O [Compound 353]	A (Fold activation>200%)	A (EC1.5<1.0 μM)
O=C(Nc1ccccn1)c1cccc2c(=O)[nH]c(-c3ccccc3OC(F)F)nc12 [Compound 328]	A (Fold activation>200%)	B (EC1.5 1-25 μM)
O=C(Nc1nccs1)c1cccc2c(=O)cc(-c3cccc(Cl)c3)[nH]c12 [Compound 433]	A (Fold activation>200%)	A (EC1.5<1.0 μM)
Cc1cc(C(=O)Nc2cccc3c(=O)cc(-c4cccc(C(F)(F)F)c4)[nH]c23)n(C)n1 [Compound 410]	A (Fold activation>200%)	A (EC1.5<1.0 μM)
Cn1c(-c2cccc(C(F)(F)F)c2)nc2c(C(=O)Nc3ccnc(CN4CCNCC4)n3)cccc2c1=O [Compound 347]	A (Fold activation>200%)	A (EC1.5<1.0 μM)
O=C(Nc1ccccn1)c1cccc2c(=O)[nH]c(-c3ccccc3C(F)(F)F)nc12 [Compound 321]	A (Fold activation>200%)	B (EC1.5 1-25 μM)
Cn1cnc(NC(=O)c2cccc3c(=O)n(C)c(-c4cccc(C(F)(F)F)c4)nc23)n1 [Compound 305]	A (Fold activation>200%)	B (EC1.5 1-25 μM)
Cn1nccc1-c1nc2c(NC(=O)c3cnccn3)cccc2c(=O)n1C [Compound 292]	B (Fold Activation<200%)	C (EC1.5>25 μM)
Cc1ncsc1-c1nc2c(C(=O)Nc3ccccn3)cccc2c(=O)n1C [Compound 226]	B (Fold Activation<200%)	B (EC1.5 1-25 μM)
Cn1c(-c2cccc(C(F)(F)F)c2)nc2c(NC(=O)c3cccc(CN4CCOCC4)c3)cccc2c1=O [Compound 338]	A (Fold activation>200%)	A (EC1.5<1.0 μM)
O=C(Nc1cnccn1)c1cccc2c(=O)cc(-c3cccc(C(F)F)c3)[nH]c12 [Compound 432]	A (Fold activation>200%)	A (EC1.5<1.0 μM)
Cn1c(-c2cccc(C(F)(F)F)c2)nc2c(C(=O)Nc3cccc(CN4CCNCC4)n3)cccc2c1=O [Compound 348]	A (Fold activation>200%)	A (EC1.5<1.0 μM)
Cn1cnc(C(=O)Nc2cccc3c(=O)n(C)c(-c4cccc(C(F)(F)F)c4)nc23)c1 [Compound 246]	A (Fold activation>200%)	A (EC1.5<1.0 μM)
Cc1cc(NC(=O)c2cccc3c(=O)n(C)c(-c4cccc(C(F)(F)F)c4)nc23)n(C)n1 [Compound 295]	B (Fold Activation<200%)	C (EC1.5>25 μM)
Cn1cc(-c2nc3c(C(=O)Nc4ccccn4)cccc3c(=O)n2C)cn1 [Compound 263]	B (Fold Activation<200%)	C (EC1.5>25 μM)
